Experimental findings from patent publication US20160296529A1, “AMINOTRIAZOLOPYRIDINE FOR USE IN THE TREATMENT OF INFLAMMATION, AND PHARMACEUTICAL COMPOSITIONS THEREOF” (priority 2012, published 2016) are described below.

Test [1] deals with IL-6-induced STAT1 phosphorylation (JAK1-dependent pathway). In words: Human whole blood assay (hWBA), IL-6 stimulation, phospho-STAT1 on CD4+ cells. The test is classed as cell-based. As to the method:
A flow cytometry analysis was performed to establish JAK1 over JAK2 compound selectivity ex vivo using human whole blood. Therefore, blood is taken from human volunteers who gave informed consent. Blood is then equilibrated for 30 min at 37° C. under gentle rocking, then aliquoted in Eppendorf tubes. Compound is added at different concentrations and incubated at 37° C. for 30 min under gentle rocking and subsequently stimulated for 20 min at 37° C. under gentle rocking with interleukin 6 (IL-6) for JAK1-dependent pathway stimulation or GM-CSF for JAK2-dependent pathway stimulation. Phospho-STAT1 and phospho-STAT5 are then evaluated using FACS analysis. […]
Cells were then washed once with 1×PBS and analyzed on a FACSCanto II flow cytometer (BD Biosciences).
50,000 total events are counted and Phospho-STAT1 positive cells are measured after gating on CD4^+ cells, in the lymphocyte gate. Data are analyzed using the FACSDiva software and the percentage of inhibition of IL-6 stimulation calculated from the percentage of positive cells for phospho-STAT1 on CD4+ cells.
A flow cytometry analysis was performed to establish JAK1 over JAK2 compound selectivity ex vivo using human whole blood. […] Phospho-STAT1 (for IL-6- and IFNα-stimulated cells) and phospho-STAT5 (for IL-2- and GM-CSF-stimulated cells) levels are then evaluated using FACS analysis. […]

For test [2], the target named is T1, Recombinant human JAK3 catalytic domain (Homo sapiens, UniProt P52333).
T1 construct: amino acids 795-1124; catalog number 08-046; purchased Carna Biosciences 08-046
Kind of test: JAK3 inhibition assay. The format is biochemical. The procedure: Recombinant human JAK3 catalytic domain (amino acids 795-1124; catalog number 08-046) was purchased from Carna Biosciences. 0.5 ng JAK3 protein was incubated with 2.5 μg polyGT substrate (Sigma catalog number P0275) in kinase reaction buffer (25 mM Tris pH 7.5, 0.5 mM EGTA, 10 mM MgCl2, 2.5 mM DTT, 0.5 mM Na3VO4, 5 mM b-glycerophosphate, 0.01% Triton X-100, 1 μM non-radioactive ATP, 0.25 μCi ^33P-gamma-ATP (Perkin Elmer, catalog number NEG602K001MC) final concentrations) with or without 5 μL containing test compound or vehicle (DMSO, 1% final concentration), in a total volume of 25 μL, in a polypropylene 96-well plate (Greiner, V-bottom). After 45 min at 30° C., reactions were stopped by adding 25 μL/well of 150 mM phosphoric acid. […] 40 μL/well of Microscint-20 was added, the top of the plates was sealed and readout was performed using the Topcount (Perkin Elmer). Kinase activity was calculated by subtracting counts per min (cpm) obtained in the presence of a positive control inhibitor (10 μM staurosporine) from cpm obtained in the presence of vehicle. The ability of a test compound to inhibit this activity was determined as:
Percentage inhibition=((cpm determined for sample with test compound present−cpm determined for sample with positive control inhibitor) divided by (cpm determined in the presence of vehicle−cpm determined for sample with positive control inhibitor))*100. […]

The term pIC50 denotes the IC50 on a negative log10 scale, so that one unit is a factor of ten. For orientation: IC50 means the concentration that inhibits the measured activity by half.

pIC50: −log10 of the molar value. “And” between values parts separate entries of the source, which are not always exact repeats. Equal values may be shown once. Read-outs that look alike come from different tables or passages of the source.

T1 sequence (P52333 795-1124): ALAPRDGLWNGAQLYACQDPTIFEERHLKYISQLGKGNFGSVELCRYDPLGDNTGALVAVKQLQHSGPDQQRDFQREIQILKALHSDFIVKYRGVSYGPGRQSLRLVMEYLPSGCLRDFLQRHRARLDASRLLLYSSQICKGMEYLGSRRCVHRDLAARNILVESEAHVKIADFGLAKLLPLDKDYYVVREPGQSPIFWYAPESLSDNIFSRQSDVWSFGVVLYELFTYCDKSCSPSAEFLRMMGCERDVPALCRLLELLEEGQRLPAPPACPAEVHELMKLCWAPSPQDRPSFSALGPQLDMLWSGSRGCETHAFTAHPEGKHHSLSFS

As for `Nc1nc2cccc(-c3ccc(CN4CCS(=O)(=O)CC4)cc3)n2n1` [Formula I, 5-[4-(1,1-Dioxothiomorpholin-4-ylmethyl)-phenyl]-[1,2,4]triazolo[1,5-a]pyridin-2-ylamine], the pIC50 in test [1] (human whole blood, 6 different donors) is 4.92; in test [2] (average, read-out: IC50 (average)), under 5.44. Moreover, the “selectivity for JAK1 over JAK2” value in test [1] (in vitro whole blood selectivity assay (IL-6 vs GM-CSF)) was “over 10 fold”. The IC50 in test [2] (individual determinations, read-out: IC50) is 2.5 µM and 3.2 µM and 3.37 µM and > 4 µM (5×) and > 3.33 µM (2×) and 3.94 µM.
